Reference: patent US20090258079A1, “Biocompatible Block Copolymer, Use Thereof and Manufacturing Method Thereof” (priority 2005, published 2009)

What was measured:
[1] = Solubilization of a drug by micelle formation with the block copolymer; assay type: physicochemical; conditions: acetic acid buffer (0.1 M), pH 4.5
[2] = drug without block copolymer, stated as known property; cited from earlier work
Hartley male guinea pigs = conditions: guinea pig, in vivo
Source text: Hartley male guinea pigs which were 10 weeks old and weighed 338 to 490 g were used. […] The physiological saline was also sterilized by filtration with a 0.22 μm membrane filter.

Hartley guinea pigs = conditions: guinea pig, in vivo, iv
Method: Hartley guinea pigs which were 7 weeks old and weighed 380 to 510 g were used. […] These substances were dissolved in physiological saline to a predetermined concentration, and the same amount of FCA (Freund's complete adjuvant) or FIA (Freund's incomplete adjuvant) was added to prepare a w/o emulsion. The FCA emulsion was first administered and then the FIA emulsion was administered under the skin of the back and foot pad of each guinea pig at a dose of 2.5 ml/kg on the second and third weeks for sensitization. […] These substances were dissolved in physiological saline to a predetermined concentration. The resulting solution was administered into the veins of the front feet or rear feet of the guinea pigs at a dose of 1.0 ml/kg on the fifth week for induction and observed for 4 hours. For 1 month after that, the weights of the guinea pigs were measured and the general conditions of the guinea pigs were observed once a week.

In the case of CC#CCC(C)[C@H](O)/C=C/[C@@H]1[C@H]2c3cccc(CCCC(=O)O)c3O[C@H]2C[C@H]1O (mixture of isomers) [beraprost sodium], the “dissolution in acetic acid buffer” value [1] is reported as “precipitate was produced”.

For CN(Cc1cnc2nc(N)nc(N)c2n1)c1ccc(C(=O)N[C@@H](CCC(=O)O)C(=O)O)cc1 [methotrexate], the “solubility of the drug alone in water” value [2] is given as “almost insoluble in water”.

With “Boc-(Leu-Leu-Ala-Lac)5-Leu-Phe-O-PEG4000-OH” the “toxicity by single dose intravenous administration” value (Hartley male guinea pigs; 20 mg/kg) was “not observed” and the general conditions (Hartley male guinea pigs; iv) was “Any special abnormality in the general conditions was not seen”.

B1: egg albumin: positive control in the ASA reaction test (protein, UniProt P01012 2-386, looked up)
Ovalbumin: GSIGAASMEFCFDVFKELKVHHANENIFYCPIAIMSALAMVYLGAKDSTRTQINKVVRFDKLPGFGDSIEAQCGTSVNVHSSLRDILNQITKPNDVYSFSLASRLYAEERYPILPEYLQCVKELYRGGLEPINFQTAADQARELINSWVESQTNGIIRNVLQPSSVDSQTAMVLVNAIVFKGLWEKAFKDEDTQAMPFRVTEQESKPVQMMYQIGLFRVASMASEKMKILELPFASGTMSMLVLLPDEVSGLEQLESIINFEKLTEWTSSNVMEERKIKVYLPRMKMEEKYNLTSVLMAMGITDVFSSSANLSGISSAESLKISQAVHAAHAEINEAGREVVGSAEAGVDAASVSEEFRADHPFLFCIKHIATNAVLFFGRCVSP
For B1, the “anaphylaxis reaction after induction administration” value (Hartley guinea pigs) was “anaphylaxis symptom was seen in all the guinea pigs”.
